Measured values published in the NIST ThermoML archive (doi:10.1016/j.jct.2016.03.021).

Assay: wn = mass fraction of the nth substance listed
Details: Liquid; for mass density: Vibrating tube method

CN(CCO)CCO [N-methyldiethanolamine] + O
viscosity [mPa·s]
Details | w1 = 0.1 | w1 = 0.2 | w1 = 0.2002 | w1 = 0.3 | w1 = 0.4
293.15 K, 93 kPa, Concentric cylinders viscometry | 1.463 | 2.293 | – | 3.942 | –
293.15 K, 100 kPa, Falling or rolling sphere viscometry | 1.476 | 2.35 | 2.35 | 3.999 | –
293.15 K, 5000 kPa, Falling or rolling sphere viscometry | 1.475 | – | 2.353 | 4.018 | –
293.15 K, 10000 kPa, Falling or rolling sphere viscometry | 1.475 | – | 2.357 | 4.038 | –
293.15 K, 20000 kPa, Falling or rolling sphere viscometry | 1.471 | – | 2.364 | 4.077 | –
293.15 K, 30000 kPa, Falling or rolling sphere viscometry | 1.472 | – | 2.372 | 4.114 | –
293.15 K, 40000 kPa, Falling or rolling sphere viscometry | 1.47 | – | 2.38 | 4.153 | –
293.15 K, 60000 kPa, Falling or rolling sphere viscometry | 1.474 | – | 2.399 | 4.231 | –
293.15 K, 80000 kPa, Falling or rolling sphere viscometry | 1.477 | – | 2.419 | 4.311 | –
293.15 K, 100000 kPa, Falling or rolling sphere viscometry | 1.485 | – | 2.437 | 4.39 | –
293.15 K, 120000 kPa, Falling or rolling sphere viscometry | 1.492 | – | 2.464 | 4.478 | –
313.15 K, 93 kPa, Concentric cylinders viscometry | 0.9079 | 1.342 | – | 2.094 | 3.145
313.15 K, 100 kPa, Falling or rolling sphere viscometry | 0.912 | 1.345 | 1.345 | 2.095 | 3.238
313.15 K, 5000 kPa, Falling or rolling sphere viscometry | 0.914 | – | 1.347 | 2.106 | 3.27
313.15 K, 10000 kPa, Falling or rolling sphere viscometry | 0.915 | – | 1.349 | 2.118 | 3.302
313.15 K, 20000 kPa, Falling or rolling sphere viscometry | 0.92 | – | 1.358 | 2.144 | 3.365
313.15 K, 30000 kPa, Falling or rolling sphere viscometry | 0.923 | – | 1.367 | 2.168 | 3.428
313.15 K, 40000 kPa, Falling or rolling sphere viscometry | 0.927 | – | 1.377 | 2.192 | 3.491
313.15 K, 60000 kPa, Falling or rolling sphere viscometry | 0.936 | – | 1.398 | 2.244 | 3.618
313.15 K, 80000 kPa, Falling or rolling sphere viscometry | 0.945 | – | 1.418 | 2.296 | 3.74
313.15 K, 100000 kPa, Falling or rolling sphere viscometry | 0.955 | – | 1.445 | 2.356 | 3.866
313.15 K, 120000 kPa, Falling or rolling sphere viscometry | 0.964 | – | 1.466 | 2.412 | 3.996
333.15 K, 93 kPa, Concentric cylinders viscometry | 0.6344 | 0.8719 | – | 1.276 | 1.82
333.15 K, 100 kPa, Falling or rolling sphere viscometry | 0.624 | 0.872 | 0.872 | 1.271 | 1.843
333.15 K, 5000 kPa, Falling or rolling sphere viscometry | 0.627 | – | 0.876 | 1.278 | 1.861
333.15 K, 10000 kPa, Falling or rolling sphere viscometry | 0.63 | – | 0.881 | 1.286 | 1.88
333.15 K, 20000 kPa, Falling or rolling sphere viscometry | 0.634 | – | 0.89 | 1.302 | 1.921
333.15 K, 30000 kPa, Falling or rolling sphere viscometry | 0.638 | – | 0.898 | 1.316 | 1.956
333.15 K, 40000 kPa, Falling or rolling sphere viscometry | 0.643 | – | 0.907 | 1.332 | 1.992
333.15 K, 60000 kPa, Falling or rolling sphere viscometry | 0.652 | – | 0.924 | 1.367 | 2.063

mass density [kg/m3]
Details | w1 = 0.1 | w1 = 0.2002 | w1 = 0.3 | w1 = 0.4
293.15 K, 100 kPa | 1007 | 1016.5 | 1026.7 | 1036.6
293.15 K, 500 kPa | 1007.2 | 1016.6 | 1026.9 | 1036.8
293.15 K, 1000 kPa | 1007.4 | 1016.8 | 1027.1 | 1036.9
293.15 K, 2000 kPa | 1007.8 | 1017.2 | 1027.4 | 1037.3
293.15 K, 5000 kPa | 1009 | 1018.4 | 1028.6 | 1038.3
293.15 K, 10000 kPa | 1011.1 | 1020.3 | 1030.4 | 1040.1
293.15 K, 15000 kPa | 1013.2 | 1022.2 | 1032.2 | 1041.9
293.15 K, 20000 kPa | 1015.3 | 1024.2 | 1034.1 | 1043.6
293.15 K, 30000 kPa | 1019.4 | 1028 | 1037.7 | 1047.1
293.15 K, 40000 kPa | 1023.4 | 1031.8 | 1041.2 | 1050.4
293.15 K, 50000 kPa | 1027.3 | 1035.4 | 1044.6 | 1053.8
293.15 K, 60000 kPa | 1031.1 | 1039 | 1048 | 1057.1
293.15 K, 70000 kPa | 1035 | 1042.6 | 1051.4 | 1060.3
293.15 K, 80000 kPa | 1038.5 | 1045.9 | 1054.6 | 1063.3
293.15 K, 90000 kPa | 1042.2 | 1049.4 | 1057.9 | 1066.4
293.15 K, 100000 kPa | 1045.7 | 1052.8 | 1061.1 | 1069.5
293.15 K, 110000 kPa | 1049.2 | 1056 | 1064.1 | 1072.4
293.15 K, 120000 kPa | 1052.7 | 1059.3 | 1067.2 | 1075.4
293.15 K, 130000 kPa | 1056.1 | 1062.6 | 1070.3 | 1078.4
293.15 K, 140000 kPa | 1059.5 | 1065.6 | 1073.2 | 1081.1
313.15 K, 100 kPa | 1000.2 | 1008.5 | 1017.2 | 1025.5
313.15 K, 500 kPa | 1000.4 | 1008.6 | 1017.4 | 1025.6
313.15 K, 1000 kPa | 1000.6 | 1008.8 | 1017.5 | 1025.8
313.15 K, 2000 kPa | 1001 | 1009.2 | 1017.9 | 1026.2
313.15 K, 5000 kPa | 1002.2 | 1010.4 | 1019.1 | 1027.3
313.15 K, 10000 kPa | 1004.3 | 1012.3 | 1020.9 | 1029.2
313.15 K, 15000 kPa | 1006.3 | 1014.2 | 1022.8 | 1031
313.15 K, 20000 kPa | 1008.2 | 1016.1 | 1024.6 | 1032.8
313.15 K, 30000 kPa | 1012.3 | 1019.9 | 1028.4 | 1036.3
313.15 K, 40000 kPa | 1016.2 | 1023.7 | 1032 | 1040
313.15 K, 50000 kPa | 1019.9 | 1027.3 | 1035.5 | 1043.2
313.15 K, 60000 kPa | 1023.8 | 1031 | 1039 | 1046.6
313.15 K, 70000 kPa | 1027.4 | 1034.4 | 1042.3 | 1050
313.15 K, 80000 kPa | 1031 | 1037.9 | 1045.5 | 1053.1
313.15 K, 90000 kPa | 1034.5 | 1041.2 | 1048.7 | 1056.2
313.15 K, 100000 kPa | 1038.2 | 1044.7 | 1052 | 1059.5
313.15 K, 110000 kPa | 1041.5 | 1047.9 | 1055.2 | 1062.5
313.15 K, 120000 kPa | 1044.9 | 1051.1 | 1058.3 | 1065.5
313.15 K, 130000 kPa | 1048.1 | 1054.3 | 1061.3 | 1068.4
313.15 K, 140000 kPa | 1051.4 | 1057.4 | 1064.5 | 1071.4
333.15 K, 100 kPa | 990.5 | 997.8 | 1005.4 | 1012.4
333.15 K, 500 kPa | 990.6 | 998 | 1005.6 | 1012.7
333.15 K, 1000 kPa | 990.8 | 998.2 | 1005.7 | 1012.8
333.15 K, 2000 kPa | 991.3 | 998.6 | 1006.2 | 1013.2
333.15 K, 5000 kPa | 992.5 | 999.8 | 1007.3 | 1014.4
333.15 K, 10000 kPa | 994.6 | 1001.8 | 1009.3 | 1016.4
333.15 K, 15000 kPa | 996.6 | 1003.8 | 1011.3 | 1018.4
333.15 K, 20000 kPa | 998.6 | 1005.7 | 1013.2 | 1020.3
333.15 K, 30000 kPa | 1002.6 | 1009.7 | 1017 | 1024.1
333.15 K, 40000 kPa | 1006.7 | 1013.6 | 1020.9 | 1027.9
333.15 K, 50000 kPa | 1010.4 | 1017.2 | 1024.3 | 1031.4
333.15 K, 60000 kPa | 1014.2 | 1020.9 | 1027.9 | –
